In ChEMBL document CHEMBL3885861, “Open TG-GATES”:

Organism: Rattus norvegicus
Test: Open TG-GATES - Regimen: Daily Repeat
Type: toxicity, organism-based, Sprague-Dawley
Design: regimen Daily Repeat, gender Male, age 6 weeks
Conditions: in vivo, po, 20 mg/kg, route gavage, dose level Low; for APTT / Bas / Eos / Fbg / Hb / Ht / Lym / MCH / MCHC / MCV / Mono / Neu / PT / Plat / RBC / Ret / WBC: tissue Blood; for KIDNEY_L / KIDNEY_R / KIDNEY_TOTAL: tissue Kidney; for LIVER: tissue Liver; for A/G / ALP / ALT / AST / BUN / CRE / Ca / Cl / DBIL / GLC / IP / K / LDH / Na / PL / RALB / TBIL / TC / TG / TP / gamma-GTP: tissue Plasma

In the case of `CCc1oc2ccccc2c1C(=O)c1cc(Br)c(O)c(Br)c1` [BENZBROMARONE], the TERMINAL_BW (72 h, time 3 day) is reported as 239.2 g, the APTT (72 h, time 3 day) is reported as 16.2 s and the Bas (72 h, time 3 day) is reported as 0%. It also gave an Eos (72 h, time 3 day) of 1%, a Fbg (72 h, time 3 day) of 233.6 mg/dL and a Hb (72 h, time 3 day) of 13.8 g/dL. The Ht (72 h, time 3 day) was 41%, the Lym (72 h, time 3 day) was 78.8% and the MCH (72 h, time 3 day) was 22.4 pg. It also gave an MCHC (72 h, time 3 day) of 33.7%, an MCV (72 h, time 3 day) of 66.3 fL and a Mono (72 h, time 3 day) of 7%. For the same molecule, the Neu (72 h, time 3 day) was 13.2%, the PT (72 h, time 3 day) was 11.8 s and the Plat (72 h, time 3 day) was 112.4 x10_4/uL. It also gave an RBC (72 h, time 3 day) of 619.6 x10_4/ul, a Ret (72 h, time 3 day) of 7.4% and a WBC (72 h, time 3 day) of 116.5 x10_2/uL. For the same molecule, the KIDNEY_L (72 h, time 3 day) was 1.1 g, the KIDNEY_R (72 h, time 3 day) was 1.1 g and the KIDNEY_TOTAL (72 h, time 3 day) was 2.2 g. For the same molecule, the LIVER (72 h, time 3 day) was 12.8 g, the A/G (72 h, time 3 day) was 2.1 and the ALP (72 h, time 3 day) was 818.8 IU/L. For the same molecule, the ALT (72 h, time 3 day) was 31.2 IU/L, the AST (72 h, time 3 day) was 59.8 IU/L and the BUN (72 h, time 3 day) was 18.6 mg/dL. The CRE (72 h, time 3 day) was 0.6 mg/dL, the Ca (72 h, time 3 day) was 10.4 mg/dL and the Cl (72 h, time 3 day) was 105 meq/L. For the same molecule, the DBIL (72 h, time 3 day) was 0.008 mg/dL, the GLC (72 h, time 3 day) was 189.2 mg/dL and the IP (72 h, time 3 day) was 7.7 mg/dL. The K (72 h, time 3 day) was 4.9 meq/L, the LDH (72 h, time 3 day) was 90.2 IU/L and the Na (72 h, time 3 day) was 139.5 meq/L. For the same molecule, the PL (72 h, time 3 day) was 158.8 mg/dL, the RALB (72 h, time 3 day) was 4 g/dL and the TBIL (72 h, time 3 day) was 0.3 mg/dL. It also gave a TC (72 h, time 3 day) of 84.2 mg/dL, a TG (72 h, time 3 day) of 114.2 mg/dL and a TP (72 h, time 3 day) of 6 g/dL. For the same molecule, the gamma-GTP (72 h, time 3 day) was 0.8 IU/L, the TERMINAL_BW ([…], time 7 day) was 269 g and the TERMINAL_BW ([…], time 14 day) was 309.9 g. The TERMINAL_BW ([…], time 28 day) was 378.9 g, the APTT ([…], time 7 day) was 16.8 s and the Bas ([…], time 7 day) was 0%. The Eos ([…], time 7 day) was 1%, the Fbg ([…], time 7 day) was 244.4 mg/dL and the Hb ([…], time 7 day) was 14.2 g/dL. For the same molecule, the Ht ([…], time 7 day) was 42%, the Lym ([…], time 7 day) was 79.8% and the MCH ([…], time 7 day) was 21.2 pg. The MCHC ([…], time 7 day) was 33.9%, the MCV ([…], time 7 day) was 62.6 fL and the Mono ([…], time 7 day) was 5.8%. The Neu ([…], time 7 day) was 13.4%, the PT ([…], time 7 day) was 11.9 s and the Plat ([…], time 7 day) was 113.1 x10_4/uL. The RBC ([…], time 7 day) was 670.8 x10_4/ul, the Ret ([…], time 7 day) was 5.9% and the WBC ([…], time 7 day) was 102 x10_2/uL. For the same molecule, the APTT ([…], time 14 day) was 16.5 s, the Bas ([…], time 14 day) was 0% and the Eos ([…], time 14 day) was 1%. The Fbg ([…], time 14 day) was 228.8 mg/dL, the Hb ([…], time 14 day) was 14.4 g/dL and the Ht ([…], time 14 day) was 43.4%. The Lym ([…], time 14 day) was 81.4%, the MCH ([…], time 14 day) was 20.8 pg and the MCHC ([…], time 14 day) was 33.3%. For the same molecule, the MCV ([…], time 14 day) was 62.5 fL, the Mono ([…], time 14 day) was 6.2% and the Neu ([…], time 14 day) was 11.2%. For the same molecule, the PT ([…], time 14 day) was 11.7 s, the Plat ([…], time 14 day) was 104.8 x10_4/uL and the RBC ([…], time 14 day) was 694.6 x10_4/ul. It also gave a Ret ([…], time 14 day) of 4.4%, a WBC ([…], time 14 day) of 128.4 x10_2/uL and an APTT ([…], time 28 day) of 16.9 s. The Bas ([…], time 28 day) was 0%, the Eos ([…], time 28 day) was 1.4% and the Fbg ([…], time 28 day) was 223.4 mg/dL. For the same molecule, the Hb ([…], time 28 day) was 15.4 g/dL, the Ht ([…], time 28 day) was 45.8% and the Lym ([…], time 28 day) was 85.4%. The MCH ([…], time 28 day) was 19.3 pg, the MCHC ([…], time 28 day) was 33.6% and the MCV ([…], time 28 day) was 57.6 fL. It also gave a Mono ([…], time 28 day) of 4.6%, a Neu ([…], time 28 day) of 8.6% and a PT ([…], time 28 day) of 12.1 s. The Plat ([…], time 28 day) was 101.2 x10_4/uL, the RBC ([…], time 28 day) was 795.8 x10_4/ul and the Ret ([…], time 28 day) was 2.8%. For the same molecule, the WBC ([…], time 28 day) was 139.2 x10_2/uL, the KIDNEY_L ([…], time 7 day) was 1.2 g and the KIDNEY_R ([…], time 7 day) was 1.2 g. The KIDNEY_TOTAL ([…], time 7 day) was 2.4 g, the KIDNEY_L ([…], time 14 day) was 1.2 g and the KIDNEY_R ([…], time 14 day) was 1.3 g. For the same molecule, the KIDNEY_TOTAL ([…], time 14 day) was 2.5 g, the KIDNEY_L ([…], time 28 day) was 1.5 g and the KIDNEY_R ([…], time 28 day) was 1.5 g. It also gave a KIDNEY_TOTAL ([…], time 28 day) of 2.9 g, an LIVER ([…], time 7 day) of 14.3 g and an LIVER ([…], time 14 day) of 15.3 g. The LIVER ([…], time 28 day) was 17.3 g, the A/G ([…], time 7 day) was 1.9 and the ALP ([…], time 7 day) was 819.4 IU/L. It also gave an ALT ([…], time 7 day) of 34.6 IU/L, an AST ([…], time 7 day) of 61.8 IU/L and a BUN ([…], time 7 day) of 20 mg/dL. It also gave a CRE ([…], time 7 day) of 0.6 mg/dL, a Ca ([…], time 7 day) of 10.4 mg/dL and a Cl ([…], time 7 day) of 107.9 meq/L. It also gave a DBIL ([…], time 7 day) of 0.008 mg/dL, a GLC ([…], time 7 day) of 187.8 mg/dL and an IP ([…], time 7 day) of 7.9 mg/dL. For the same molecule, the K ([…], time 7 day) was 4.9 meq/L, the LDH ([…], time 7 day) was 92 IU/L and the Na ([…], time 7 day) was 138.5 meq/L. The PL ([…], time 7 day) was 163.8 mg/dL, the RALB ([…], time 7 day) was 4 g/dL and the TBIL ([…], time 7 day) was 0.3 mg/dL. The TC ([…], time 7 day) was 82 mg/dL, the TG ([…], time 7 day) was 139.6 mg/dL and the TP ([…], time 7 day) was 6.2 g/dL. The gamma-GTP ([…], time 7 day) was 1 IU/L, the A/G ([…], time 14 day) was 1.8 and the ALP ([…], time 14 day) was 708.6 IU/L. The ALT ([…], time 14 day) was 29.4 IU/L, the AST ([…], time 14 day) was 57.2 IU/L and the BUN ([…], time 14 day) was 19.6 mg/dL. For the same molecule, the CRE ([…], time 14 day) was 0.6 mg/dL, the Ca ([…], time 14 day) was 10.4 mg/dL and the Cl ([…], time 14 day) was 107.5 meq/L. It also gave a DBIL ([…], time 14 day) of 0.002 mg/dL, a GLC ([…], time 14 day) of 191.8 mg/dL and an IP ([…], time 14 day) of 7.2 mg/dL. For the same molecule, the K ([…], time 14 day) was 4.8 meq/L, the LDH ([…], time 14 day) was 88 IU/L and the Na ([…], time 14 day) was 140.3 meq/L. For the same molecule, the PL ([…], time 14 day) was 168.2 mg/dL, the RALB ([…], time 14 day) was 4.1 g/dL and the TBIL ([…], time 14 day) was 0.3 mg/dL. It also gave a TC ([…], time 14 day) of 86 mg/dL, a TG ([…], time 14 day) of 139.4 mg/dL and a TP ([…], time 14 day) of 6.3 g/dL. It also gave a gamma-GTP ([…], time 14 day) of 2 IU/L, an A/G ([…], time 28 day) of 2 and an ALP ([…], time 28 day) of 589.8 IU/L. For the same molecule, the ALT ([…], time 28 day) was 30.6 IU/L, the AST ([…], time 28 day) was 57.4 IU/L and the BUN ([…], time 28 day) was 20.6 mg/dL. It also gave a CRE ([…], time 28 day) of 0.5 mg/dL, a Ca ([…], time 28 day) of 9.9 mg/dL and a Cl ([…], time 28 day) of 107.3 meq/L. It also gave a DBIL ([…], time 28 day) of 0.008 mg/dL, a GLC ([…], time 28 day) of 192 mg/dL and an IP ([…], time 28 day) of 6.6 mg/dL. It also gave a K ([…], time 28 day) of 4.4 meq/L, an LDH ([…], time 28 day) of 92.2 IU/L and a Na ([…], time 28 day) of 140.6 meq/L. It also gave a PL ([…], time 28 day) of 154.4 mg/dL, an RALB ([…], time 28 day) of 4.2 g/dL and a TBIL ([…], time 28 day) of 0.3 mg/dL. The TC ([…], time 28 day) was 75.6 mg/dL, the TG ([…], time 28 day) was 140 mg/dL and the TP ([…], time 28 day) was 6.4 g/dL. The gamma-GTP ([…], time 28 day) was 1.8 IU/L.
